# Several values for one entry are separate records, joined by “and”; a condition that tells them apart may be missing. Equal values may be shown once.
# Key:
# [1] = target: T1, SVV-001 3C^pro produced during SVV-001 infection of NCI-H446 cells (Seneca Valley virus, UniProt Q155Z9); assay: Fluorescently quenched peptide cellular assay (SVV-001 infected NCI-H446 cells); type: cell-based, Seneca Valley Virus (SVV-001); details: FQ peptide 3 μM; for cleavage (increase in fluorescence) with SVV-001 infected cells / cleavage (increase in fluorescence) with uninfected cells: 3 hours at 37°C
# T1 construct: 3C^pro released during a lytic viral infection is the sole source of the 3C^pro; endogenous in cells; host or cells: NCI-H446 (human SCLC) cells infected with wild-type SVV-001 for 8 h
# Method: (§1) All SVV-001 stocks were cultured and purified as described previously and virus titers were determined by tissue culture infective dose (TCID50). The SCLC cell line, NCI-H446 (ATCC) was cultured in RPMI 1640 media (Quality Biological) supplemented with 10% fetal bovine serum (HyClone). The cell line NCI-H446 is routinely tested and authenticated by short tandem repeat (STR) analysis by DDC Medical and was last authenticated six months before submission.
# A similar cellular assay was performed as described in the previous paragraph with the exception of using the CPQ2/5-FAM L/VP4.1 and NHL fluorogenic peptides described earlier. After an 8 hour infection with SVV-001, NCI-H446 cells were removed from the cell culture dish using phenol-red free RPMI 1640 media supplemented with 0.1% ethylenediaminetetraacetic acid (EDTA, Sigma) to aid in gentle cell detachment, and pelleted via centrifugation. Pellets were resuspended in phenol-red free RPMI 1640 prior to plating in black opaque 96 well plates as above. CPQ2/5-FAM peptides, L/VP4.1 or NHL were added at a final concentration of 3 μM to plated cells and incubated for 3 hours at 37°C. Fluorescence emissions at 520 nm, corresponding to the liberated 5-FAM fluorophore peptide cleavage product was followed after excitation at 490 nm by a Synergy Neo multimode plate reader (Biotek) every 60 s. The experiment was performed in triplicate in a 96 well flat bottom black opaque plate and average fluorescence units were used to observe changes in fluorescence. Standard curves of 5-FAM fluorescence vs. concentration were generated to convert the relative fluorescence units to moles of cleaved product generated during the reaction. Initial rates of hydrolysis were calculated from data during the first 10 minutes of the reaction and averaged from 3–4 separate experiments. Uncertainty is expressed by standard deviation and shown with error bars.
# Plasma stability assay = type: in vitro ADME; details: pooled, 50% plasma/water, peptide 20 μM, 1 hour at 37°C; for change in fluorescence relative to plasma alone: human plasma, fluorescence read-out (ex 490 nm/em 520 nm) every 60 s, triplicate
# Method: Human plasma was obtained from pooled discarded clinical samples less than 6 hrs old. Human plasma was isolated from whole blood by centrifugation, pooled, and diluted 1:1 with distilled H2O (Gibco). The L/VP4.1 and NHL fluorogenic peptides (20 μM) were incubated with plasma for 1 h at 37°C. Fluorescence emissions were obtained as described above by a DTX 880 multimode detector ([…]) every 60 s. Experiments were performed in triplicate in a 96 well flat bottom black opaque plate and the average fluorescence units were used to observe changes in fluorescence. Uncertainty is expressed by standard deviation.
# [2] = target: T1, SVV-001 3C^pro produced during SVV-001 infection of NCI-H446 cells; assay: FRET substrate cellular assay (SVV-001 infected NCI-H446 cells); type: cell-based, Seneca Valley Virus (SVV-001); details: FP substrate 200 nM, NCI-H446 cells after 8 h SVV-001 infection, 3 h at 37°C
# Method: as §1
# Cells (1.6 × 10^7) were plated on a 150 mm cell culture dish (Corning) and allowed to recover overnight at 37°C. Each plate was inoculated with SVV-001 at the TCID50 and infected cells were incubated at 37°C for 8 h. After aspiration of the media, cells were mechanically lifted from the plate in phenol-red free RPMI 1640 media (Gibco) and pelleted by centrifugation. […] During the substrate incubation the change in FRET was measured with a Tecan Safire fluorimeter as described above. Conversion of the L/VP4.1 substrate to cleaved substrate was calculated by dividing the change in the FRET ratio at each time point by the total change in the FRET ratio corresponding to complete cleavage of the substrate. The conversion of the NHL substrate was similarly determined by dividing the change in the FRET ratio of the NHL at each time point by the total change in the FRET ratio of the L/VP4.1 substrate corresponding to complete cleavage. […]
# SVV-001 3C^pro = target: T2, SVV-001 3C^pro (Seneca Valley virus, UniProt Q155Z9); assay: FRET substrate cleavage assay with purified recombinant SVV-001 3C^pro; type: biochemical, Seneca Valley Virus (SVV-001); details: for kcat/KM: CyPet/YPet FRET fusion protein substrate 200 nM, PBS pH 7.4, 30°C, average of 5–7 experiments, uncertainty SD, N/A where no cleavage was measurable; for kcat/KM / cleavage by SVV-001 3C^pro (result in words): 3 h; for Relative to WT: kcat/KM relative to endogenous L/VP4 FRET substrate; for cleavage by SVV-001 3C^pro (result in words): FRET fusion protein substrate 200 nM, 30°C
# T2 construct: made in house; host or cells: E. coli BL21 AI
# Method: (§2) Reactions were performed in PBS, pH 7.4 and 200 nM FRET substrate in a total volume of 100 μL. Substrates were incubated with 250 nM SVV-001 3C^pro at 30°C for 3 h. Human rhinovirus (HRV) control substrate was incubated with recombinant HRV 3C^pro under the same conditions. Fluorescence emissions at 475 nm and 527 nm, corresponding to CyPet and YPet respectively, were followed after excitation at 433 nm every 180 s by a Safire fluorimeter (Tecan). All experiments were performed in triplicate. FRET ratios (YPet fluorescence/CyPet fluorescence) were calculated at each timepoint. Conversion of each substrate to cleaved substrate was calculated by dividing the change in the FRET ratio at each timepoint by the total change in the FRET ratio corresponding to complete cleavage of the substrate. Using the equation from Boulware et al., conversion data was plotted vs. time (s) and fit with the equation: […] where [E] is the 3C^pro concentration (M) and t is time (s). The second order rate constant (k cat/K M) was determined by the curve fit using GraphPad Prism software. Reported values are the average k cat/K M values of 5–7 experiments. Uncertainty is expressed by standard deviation. Error bars on data points were removed for figure clarity.
# CAV 3C^pro = assay: FRET substrate cleavage assay with CAV 3C^pro; type: biochemical, Coxsackie A virus (CAV); details: 250 nM CAV 3C^pro, 3 hours at 30°C
# Method: (§3) Supplementary file pone.0129103.s004.tif: S4 Fig Comparison of SVV 3C^pro- L/VP4.1 Substrate Specificity to Selected Picornavirus Protease-Substrate Pairs. A. Substrates L/VP4.1 (labeled SVV), HRV, and Coxsackievirus (CAV) 2C/3A substrate (labeled CAV) with amino acid sequence MEALFQ↓GP were incubated with 250 nM SVV 3C^pro (black data points), HRV 3C^pro (blue data points), or CAV 3C^pro (red data points) for 3 hours at 30°C. CAV 3C^pro was cloned, overexpressed, and purified using the same methods described for SVV 3C^pro in the Methods section. The decrease in FRET was measured in real time using a fluorimeter and data was converted to display fraction of substrate converted to hydrolyzed substrate over time. Data points represent the average of three replicates at each time point. B. Heat map depicting relative rates of cleavage for protease-substrate pairs compared to the native protease-substrate pair. (TIF) Click here for additional data file.
# HRV 3C^pro = target: T3, HRV 3C^pro (Human rhinovirus 14, UniProt P03303); assay: FRET substrate cleavage assay with recombinant HRV 3C^pro; type: biochemical
# T3 construct: Recombinant HRV 3C Protease was purchased from Sigma; purchased Sigma
# Method: as §2
# as §3, with “B. Heat map depicting relative rates of cleavage for protease-substrate pairs compared to the native protease-substrate pair. (TIF) Click here for additional data file.” left out
# [3] = NCI-H446 cells after 8 hour SVV-001 infection
# [4] = FRET fusion protein substrate, 250 nM SVV-001 3C^pro
# T1 sequence (Q155Z9 1508-1719): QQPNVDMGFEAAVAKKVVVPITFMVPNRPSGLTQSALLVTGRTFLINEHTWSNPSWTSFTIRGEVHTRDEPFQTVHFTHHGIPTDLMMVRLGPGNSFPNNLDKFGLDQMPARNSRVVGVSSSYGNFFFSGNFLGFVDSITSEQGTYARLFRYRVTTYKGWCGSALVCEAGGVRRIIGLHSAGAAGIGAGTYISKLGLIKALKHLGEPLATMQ
# T3 sequence (P03303 1538-1719): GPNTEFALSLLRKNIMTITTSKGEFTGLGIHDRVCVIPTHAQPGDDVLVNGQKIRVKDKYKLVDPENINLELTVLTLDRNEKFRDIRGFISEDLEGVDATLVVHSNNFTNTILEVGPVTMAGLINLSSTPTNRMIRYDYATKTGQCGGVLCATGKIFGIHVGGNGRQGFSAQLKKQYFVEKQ
# T2 sequence (Q155Z9 1509-1719): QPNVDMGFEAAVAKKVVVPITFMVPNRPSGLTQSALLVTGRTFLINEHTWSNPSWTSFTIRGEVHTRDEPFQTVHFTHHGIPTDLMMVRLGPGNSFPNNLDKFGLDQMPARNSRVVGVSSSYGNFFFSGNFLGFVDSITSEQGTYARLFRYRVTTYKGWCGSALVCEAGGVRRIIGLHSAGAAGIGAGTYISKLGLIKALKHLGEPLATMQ
substance,measurement,setting,value
"CPQ2-GGSGGS-K(5FAM)-KK-NH2 [NHL FQ peptide, non-hydrolysable linker peptide CPQ2-GGSGGS-K(5FAM)-KK-NH2, negative control, reference compound]",cleavage (increase in fluorescence) with SVV-001 infected cells,[1]; [3],not cleaved
same,cleavage (increase in fluorescence) with uninfected cells,[1]; uninfected NCI-H446 cells,not cleaved
CPQ2-IVYELQGP-K(5FAM)-KK-NH2 [L/VP4.1 FQ peptide],change in fluorescence relative to plasma alone,Plasma stability assay,no significant change in fluorescence
same,stability in human plasma (conclusion),Plasma stability assay; fluorescence read-out,stable
same,"initial rate of reaction, SVV infected cells","[1]; NCI-H446 cells after 8 hour SVV-001 infection, 37°C, first 10 minutes, averaged from 3–4 experiments, SD",0.446 ± 0.0056 pmol/s
same,cleavage (increase in fluorescence) with SVV-001 infected cells,[1]; [3],significant increase in fluorescence
same,"initial rate of reaction, uninfected cells","[1]; uninfected NCI-H446 cells, 37°C, first 10 minutes, averaged from 3–4 experiments, SD",0.168 ± 0.0025 pmol/s
same,cleavage (increase in fluorescence) with uninfected cells,[1]; uninfected NCI-H446 cells,did not show an appreciable increase in fluorescence
"GGSGGS [NHL, non-hydrolysable linker FP substrate (GGSGGS), negative control, reference compound]",loss of FRET (cleavage) with SVV-001 infected cells,[2],did not show a loss of FRET
same,change in fluorescence relative to plasma alone,Plasma stability assay,no significant change in fluorescence
"IVFELQGP [L/VP4.3, L/VP4.1 FRET substrate with P4 Y→F substitution]",kcat/KM,SVV-001 3C^pro; 250 nM SVV-001 3C^pro,12160 M⁻¹ s⁻¹
same,cleavage less efficient than the L/VP4.1 Pro variant,SVV-001 3C^pro; [4],30%
same,Relative to WT,SVV-001 3C^pro,6.3
"IVMELQGP [L/VP4.4, L/VP4.1 FRET substrate with P4 Y→M substitution]",kcat/KM,SVV-001 3C^pro; 250 nM SVV-001 3C^pro,10344 M⁻¹ s⁻¹
same,cleavage less efficient than the L/VP4.1 Pro variant,SVV-001 3C^pro; [4],40%
same,Relative to WT,SVV-001 3C^pro,5.3
"IVYELQGN [L/VP4, endogenous SVV-001 3C^pro cleavage site IVYELQGN cloned between CyPet and YPet as FRET fusion protein substrate]",kcat/KM,SVV-001 3C^pro; 250 nM SVV-001 3C^pro,1932 ± 183 M⁻¹ s⁻¹ and 1932 M⁻¹ s⁻¹
same,cleavage by SVV-001 3C^pro (result in words),SVV-001 3C^pro; 250 nM SVV-001 3C^pro,efficiently cleaved
"IVYELQGP [L/VP4.1, L/VP4 with Q↓GP (P2’ N→P substitution), FRET fusion protein substrate]",loss of FRET (cleavage) with SVV-001 infected cells,[2],Loss of FRET
same,turnover by non-native 3C protease (CAV 3C^pro),CAV 3C^pro,no turnover
same,kcat/KM,SVV-001 3C^pro; 250 nM SVV-001 3C^pro,17446 ± 2203 M⁻¹ s⁻¹ and 17446 M⁻¹ s⁻¹
same,increase of kcat/KM relative to L/VP4,SVV-001 3C^pro; [4],approximately 9 fold
same,Relative to WT,SVV-001 3C^pro,9.0
same,turnover by non-native 3C protease (HRV 3C^pro),"HRV 3C^pro; FRET substrate, 250 nM HRV 3C^pro, 3 hours at 30°C",no turnover
"IVYELQ↓SP [L/VP4.9, P1’ GN→SP substituted form of L/VP4 (IVYELQ↓SP) cloned between CyPET and YPET]",cleavage by SVV-001 3C^pro (result in words),SVV-001 3C^pro; 250 nM SVV-001 3C^pro,"increased turnover efficiency over L/VP4, but was inferior to L/VP4.1"
"IVYEPQGP [L/VP4.2, L/VP4.1 FRET substrate with P2 L→P substitution]",cleavage by SVV-001 3C^pro (result in words),SVV-001 3C^pro; 250 nM SVV-001 3C^pro,not efficiently cleaved in 3 hours
"KLFKMQGP [2B/2C, endogenous SVV-001 cleavage site KLFKMQGP cloned between CyPet and YPet as FRET fusion protein substrate]",kcat/KM,SVV-001 3C^pro; 250 nM SVV-001 3C^pro,1204 ± 146 M⁻¹ s⁻¹ and 1204 M⁻¹ s⁻¹
same,cleavage by SVV-001 3C^pro (result in words),SVV-001 3C^pro; 250 nM SVV-001 3C^pro,efficiently cleaved
"LEVLFQGP [HRV, optimized human rhinovirus 3C^pro FP substrate (LEVLFQGP), positive control]",kcat/KM,"HRV 3C^pro; CyPet/YPet FRET fusion protein substrate 200 nM, recombinant HRV 3C^pro, PBS pH 7.4, 30°C, 3 h, average of 5–7 experiments, uncertainty SD",5079 ± 528 M⁻¹ s⁻¹ and 5079 M⁻¹ s⁻¹
same,"kcat/KM higher than either SVV FP substrate (L/VP4, 2B/2C)",HRV 3C^pro; HRV FP substrate with HRV 3C^pro versus SVV FP substrates with SVV-001 3C^pro,3-4 fold
"VYELQGP [L/VP4.5, P6 truncation of L/VP4.1 FRET substrate]",kcat/KM,SVV-001 3C^pro; 250 nM SVV-001 3C^pro,9839 M⁻¹ s⁻¹
same,decrease of turnover efficiency of cleavage from L/VP4.1,SVV-001 3C^pro; [4],~2 fold
same,Relative to WT,SVV-001 3C^pro,5.1
"YELQGP [L/VP4.6, P5/P6 truncation of L/VP4.1 FRET substrate]",kcat/KM,SVV-001 3C^pro; 250 nM SVV-001 3C^pro,1939 M⁻¹ s⁻¹
same,Relative to WT,SVV-001 3C^pro,1.0
